Test results from the NIST ThermoML archive (doi:10.1016/j.jct.2017.08.025).
Several values for one entry are separate records, joined by “and”; a condition that tells them apart may be missing. Equal values may be shown once.

Experiment: mn = molality of the nth substance listed, in mol/kg
Settings: 100 kPa, Liquid; for speed of sound: Frequency=3 MHz, Single path-length method; for mass density: Vibrating tube method

CCCCn1cc[n+](C)c1.F[B-](F)(F)F [1-butyl-3-methylimidazolium tetrafluoroborate] + O
Settings	mass density, 288.15 K [kg/m3]	mass density, 293.15 K	mass density, 298.15 K	mass density, 303.15 K	mass density, 308.15 K	speed of sound, 288.15 K [m/s]	speed of sound, 293.15 K [m/s]	speed of sound, 298.15 K [m/s]	speed of sound, 303.15 K [m/s]	speed of sound, 308.15 K [m/s]
m1 = 0.005	999.42	998.517 kg/m3	997.393 kg/m3	995.982 kg/m3	994.365 kg/m3	1464.7	1482.6	1497.5	1512.3	1519.6
m1 = 0.01	999.705	998.831 kg/m3	997.7 kg/m3 and 997.702 kg/m3	996.31 kg/m3 and 996.311 kg/m3	994.694 kg/m3	1465.1	1483.1	1497.9	1512.8	1520.6
m1 = 0.03	1000.86	999.967 kg/m3 and 999.97 kg/m3	998.803 kg/m3	997.512 kg/m3 and 997.51 kg/m3	995.895 kg/m3	1467	1484.9	1499.8	1514.6	1522.4
m1 = 0.05	1002	1001 kg/m3	999.906 kg/m3 and 999.91 kg/m3	998.675 kg/m3 and 998.68 kg/m3	996.998 kg/m3 and 997 kg/m3	1468.8	1486.7	1501.6	1516.4	1524.2
